Data published in PubChem BioAssay (NCI).
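Five concentrations, 48 hours, 96-well plates. Definition used: TGI = concentration required for complete inhibition of growth.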

Assays:
Assay in all cases: inhibition of tumour cell growth, NCI panel, 48 h
[1] = test system: ACHN renal
[2] = test system: CAKI-1 renal
[3] = test system: HS 578T breast
[4] = test system: MDA-MB-231 breast
[5] = test system: OVCAR-8 ovarian
[6] = test system: MALME-3M melanoma
[7] = test system: SF-539 CNS
[8] = test system: SW-620 colon
[9] = test system: EKVX NSCLC
[10] = test system: UO-31 renal
[11] = test system: M14 melanoma
[12] = test system: SK-OV-3 ovarian
[13] = test system: UACC-257 melanoma
[14] = test system: SNB-19 CNS
[15] = test system: HOP-62 NSCLC
[16] = test system: TK-10 renal
[17] = test system: OVCAR-3 ovarian

SMILES | TGI [1] [µM] | TGI [2] [µM] | TGI [3] [µM] | TGI [4] [µM] | TGI [5] [µM] | TGI [6] [µM] | TGI [7] [µM] | TGI [8] [µM] | TGI [9] [µM] | TGI [10] [µM] | TGI [11] [µM] | TGI [12] [µM] | TGI [13] [µM] | TGI [14] [µM] | TGI [15] [µM] | TGI [16] [µM] | TGI [17] [µM]
C=CCNC1=C2C[C@@H](C)C[C@@H](OC)[C@H](OC(=O)CCN(C)C)[C@H](C)/C=C(\C)[C@@H](OC(N)=O)[C@H](OC)/C=C\C=C(/C)C(=O)NC(=CC1=O)C2=O | 22.2 | 45 | 40.4 | 8.89 | 48 | 19.2 | 16.8 | > 51.3 | 22.9 | 27.1 | 20.1 | 2.73 | 16.7 | 23.1 | 13.4 | 17.3 | 3.61
CC(C)=CCc1c2c(c(O)c3c(=O)c4c(oc13)-c1ccc(O)cc1OC4C=C(C)C)C=CC(C)(C)O2 (stereo not given) | 24.7 | 34.4 | 17.2 | 28 | 28.8 | 34.3 | 32.8 | 23.5 | 30.3 | 33.7 | 35.4 | 33.3 | 29.4 | 30.2 | 28.4 | 28.5 | 25.2
COc1ccc(/C(CC2OC(=O)c3ccccc32)=N\NC(N)=O)cc1 (stereo not given) | > 100 | > 100 | > 100 | > 100 | > 100 | > 100 | > 100 | > 100 | > 100 | > 100 | > 100 | > 100 | > 100 | > 100 | > 100 | > 100 | > 100
CC(=O)NN(c1ccccc1)C1CCN(c2ccccc2)N1C(C)=O (stereo not given) | > 10 | > 10 | > 10 | > 10 | > 10 | > 10 | > 10 | > 10 | > 10 | > 10 | > 10 | > 10 | > 10 | > 10 | > 10 | > 10 | > 10
C=CCN1C(=O)CC(=O)N(NC2=NNC3(C(=O)N2)c2ccccc2-c2ccccc23)C1=S | > 100 | > 100 | 66.1 | > 100 | > 100 | > 100 | > 100 | > 100 | > 100 | > 100 | > 100 | > 100 | > 100 | > 100 | > 100 | > 100 | > 100
COC(=O)C(=O)C(C(=O)C(=O)Nc1ccc(C)c(C)c1)c1nc2ccc([N+](=O)[O-])cc2[nH]c1=O (stereo not given) | > 100 | > 100 | > 100 | > 100 | > 100 | > 100 | > 100 | > 100 | > 100 | > 100 | > 100 | > 100 | > 100 | > 100 | > 100 | > 100 | > 100
CC(=O)[C@]1(O)Cc2c(O)c3c(c(O)c2[C@@H](OC2CC(N)C(O)C(C)O2)C1)C(=O)c1c(OCc2ccccc2)cccc1C3=O (stereo not given in full) | 4.91 | 12 | 2.29 | 3.45 | 7.8 | 20.1 | 7.45 | 2 | 11.1 | 8.79 | 2.89 | 21.2 | 11.1 | 9.04 | 16 | 25 | 6.87
CCCCCCCCCCCCC1N=C(N)N2CCCC2=C1C(=O)OC (stereo not given) | 19.5 | 9.03 | 4.17 | 4.38 | 3.37 | 3.64 | 13.2 | 3.05 | 35.4 | 24.4 | 3.16 | 23.8 | 3.73 | 3.41 | 9.95 | > 48.7 | 5.11
Oc1ccc(SCc2cc(O)ccc2O)cc1 | 26.8 | 19.7 | 97 | 36.4 | 41.9 | 36.2 | 12.4 | > 62.8 | 41.7 | 20.7 | 33.7 | > 96.7 | > 50.3 | > 80.2 | 43.7 | 33.9 | 22.4
CSc1nc[nH]c1C(N)=S | > 100 | > 100 | > 100 | > 100 | > 100 | > 100 | > 100 | > 100 | > 100 | > 100 | > 100 | > 100 | > 100 | > 100 | > 100 | > 100 | > 100
